Values after ≈ are worked out from the molar mass of the structure shown.
The compounds below were run on Enterococcus faecium (VRE) NCTC 12952 (assay: MIC agar dilution, VRE strain 30). Details: 22 hrs.
Assay type: cell-based
Experimental: (§1) Molar equivalent concentrations were used to allow comparison between compounds of differing molecular mass. Due to weighing difficulties, any compound in solid form was melted in a water bath prior to dilution. To make ten-times strength concentrations, which takes into account agar dilution, 0.0352 mmol of each compound was weighed into plastic universal bottles and 4 mL of sterile distilled water (SDW) was added. To produce a homogenous emulsion the universals were vortexed; once achieved the emulsions were serial diluted by adding 2 mL to 2 mL of SDW.
(§2) For every 100 mL of Isosensitest agar (IST) (CM0471; Oxoid, Basingstoke, England), 3.1 g of the IST powder was added to 100 mL SDW (as per manufacturer's instructions) and sterilised for 15 minutes at 121° C. Once sterilised, the molten agar was cooled to 50° C. in a water-bath. Subsequently 4.8 g of CCEY powder (BC2160; Bioconnections, Wetherby, England), also known as Brazier's medium, was added to 100 mL SDW for every 100 mL of agar needed. This was then sterilised for 15 minutes at 121° C. Once sterilised the molten agar was cooled to 50° C. in a water-bath and 4 mL of egg-yolk emulsion (S2073; TCS Biosciences Ltd, Buckingham, United Kingdom) and 1 mL of lysed defibrinated horse blood (HB035; TCS Biosciences Ltd, Buckingham, United Kingdom) were also added for every 100 mL needed. Horse blood lysis is achieved by dilution to half concentration with SDW; when fully lysed the mixture will turn dark red in colour.
(§3) 18 mL agar was added to each universal and then poured into sterile Petri dishes. This step creates a 1/10 dilution resulting in agar plates of the required strength. Control plates for each set of strains were created by adding 18 mL of agar to 2 mL of SDW.
(§4) Suspensions of each bacterial species were prepared with a density equal to that of a 0.5 McFarland standard using a densitometer. All suspensions were made using sterile distilled water and fresh 18-20 hour cultures. As a 0.5 McFarland standard contains 1.5×10^8 CFU/mL and the multipoint inoculators applies 1 μL spots of liquid, each bacterial suspension was diluted 1/15 (20 μL suspension to 280 μL sterile distilled water).
(§5) Bacterial suspensions were prepared from fresh 18-24 hour cultures as previously described. 1 μL of each strain was inoculated onto all 100 agar plates containing a different chemical concentration and the 2 control plates. This was done using a multipoint inoculator which inoculates 20 strains per plate. All plates were incubated for 22 hours at 37° C. in aerobic conditions.
(§6) Each plate was examined for bacterial growth after 22 and 48 hours, with each being incubated in between examinations. A positive result was recorded as growth of ≧10 colonies. A negative result was recorded as growth of <10 colonies as this is equivalent to 99.9% inhibition. The lowest concentration of chemical that inhibited growth was recorded as the MIC. The results are recorded in Table IV below, where the numbers are quoted in mmol/L.
(§7) Given the positive performance of the ethoxylates of lauryl alcohol in reducing the MIC for a number of the micro-organisms tested, further MIC testing of Laureth-1 [C12E1] through to Laureth-8 [C12E8] was conducted on each of the following: • 10 strains of vancomycin-resistant enterococci (VRE)—listed in Table V below; and • 20 strains of methicillin-resistant Staphylococcus aureus (MRSA)—listed in Table VI.
(§8) The alkanol, alkanol derivatives, agar plates, and inocula were all prepared in the same way as described above.
(§9) The plates were examined in the same manner as described above and the results are recorded in Table VII below, where the numbers are quoted in mmol/L.
With `CCCCCCCCCCCCOCCO` [L1, Ethylene Glycol Monododecyl Ether] the MIC was 220 µM (≈ 50.7 µg/mL).

Same assay, conditions: 48 hrs
`CCCCCCCCCCCCOCCO` [L1, Ethylene Glycol Monododecyl Ether] showed an MIC of 220 µM (≈ 50.7 µg/mL).

Each compound was assayed on MRSA FRA 920 (assay: MIC agar dilution, MRSA strain 38). Details: Staphylococcus aureus, 22 hrs.
Assay type: cell-based
Experimental: as §1, §2, §3, §4, §5, §6, §7, §8, §9
In the case of `CCCCCCCCCCCCOCCO` [L1, Ethylene Glycol Monododecyl Ether], the MIC is reported as 220 µM (≈ 50.7 µg/mL).

Same assay, conditions: Staphylococcus aureus, 48 hrs
With `CCCCCCCCCCCCOCCO` [L1, Ethylene Glycol Monododecyl Ether] the MIC was 220 µM (≈ 50.7 µg/mL).

Each compound was assayed on Candida glabrata (assay: MIC agar dilution, micro-organism 20 (3943)). Details: Nakaseomyces glabratus, 22 h, Candida glabrata 3943; 22 hrs; read-out: MIC.
Assay type: cell-based
In short: (§10)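 Agar dilution in Isosensitest/CCEY agar with egg yolk and lysed horse blood; compounds as aqueous emulsions (myristyl and lauryl alcohol with 1-methyl-2-pyrrolidone and Tween 20). 1 µL spots of 1/15-diluted 0.5 McFarland suspensions, 37 °C aerobic, read at 22 and 48 h; MIC (mmol/L) is lowest concentration giving <10 colonies.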
For `CCCCCCCCCCCCOCCO` [L1, Ethylene Glycol Monododecyl Ether], the MIC was 220 µM (≈ 50.7 µg/mL).

Same assay, conditions: Nakaseomyces glabratus, 48 h, Candida glabrata 3943; 48 hrs; read-out: MIC
`CCCCCCCCCCCCOCCO` [L1, Ethylene Glycol Monododecyl Ether] was tested, and the MIC was 220 µM (≈ 50.7 µg/mL).

These compounds were tested on Staphylococcus epidermidis (assay: MIC agar dilution, micro-organism 14 (11047)). Details: Staphylococcus epidermidis 11047; 22 hrs; read-out: MIC.
Assay type: cell-based
In short: as §10
Work on `CCCCCCCCCCCCOCCO` [L1, Ethylene Glycol Monododecyl Ether] yielded an MIC of 220 µM (≈ 50.7 µg/mL).

Same assay, conditions: Staphylococcus epidermidis 11047; 48 hrs; read-out: MIC
`CCCCCCCCCCCCOCCO` [L1, Ethylene Glycol Monododecyl Ether] was tested, and the MIC was 220 µM (≈ 50.7 µg/mL).

What follows are compounds tested on MRSA EMRSA 16 03732/95 (assay: MIC agar dilution, MRSA strain 45). Details: Staphylococcus aureus, 22 hrs.
Assay type: cell-based
Experimental: as §1, §2, §3, §4, §5, §6, §7, §8, §9
Work on `CCCCCCCCCCCCOCCO` [L1, Ethylene Glycol Monododecyl Ether] yielded an MIC of 220 µM (≈ 50.7 µg/mL).

Same assay, conditions: Staphylococcus aureus, 48 hrs
`CCCCCCCCCCCCOCCO` [L1, Ethylene Glycol Monododecyl Ether] was tested, and the MIC was 220 µM (≈ 50.7 µg/mL).

The compounds below were run on MRSA EMRSA 16 21354/95 (assay: MIC agar dilution, MRSA strain 44). Details: Staphylococcus aureus, 22 hrs.
Assay type: cell-based
Experimental: as §1, §2, §3, §4, §5, §6, §7, §8, §9
`CCCCCCCCCCCCOCCO` [L1, Ethylene Glycol Monododecyl Ether] was tested, and the MIC was 220 µM (≈ 50.7 µg/mL).

Same assay, conditions: Staphylococcus aureus, 48 hrs
Work on `CCCCCCCCCCCCOCCO` [L1, Ethylene Glycol Monododecyl Ether] yielded an MIC of 220 µM (≈ 50.7 µg/mL).

What follows are compounds tested on Enterococcus faecalis (VRE) MB 726 (assay: MIC agar dilution, VRE strain 28). Details: 22 hrs.
Assay type: cell-based
Experimental: as §1, §2, §3, §4, §5, §6, §7, §8, §9
In the case of `CCCCCCCCCCCCOCCO` [L1, Ethylene Glycol Monododecyl Ether], the MIC is reported as 440 µM (≈ 101 µg/mL).

Same assay, conditions: 48 hrs
In the case of `CCCCCCCCCCCCOCCO` [L1, Ethylene Glycol Monododecyl Ether], the MIC is reported as 440 µM (≈ 101 µg/mL).

The compounds below were run on Steptococcus pyogenes (assay: MIC agar dilution, micro-organism 11 (8306)). Details: 22 h, Steptococcus pyogenes 8306; 22 hrs; read-out: MIC.
Assay type: cell-based
In short: as §10
`CCCCCCCCCCCCOCCO` [L1, Ethylene Glycol Monododecyl Ether] showed an MIC of 220 µM (≈ 50.7 µg/mL).

Same assay, conditions: 48 h, Steptococcus pyogenes 8306; 48 hrs; read-out: MIC
`CCCCCCCCCCCCOCCO` [L1, Ethylene Glycol Monododecyl Ether] was tested, and the MIC was 220 µM (≈ 50.7 µg/mL).

Each compound was assayed on Listeria monocytogenes (assay: MIC agar dilution, micro-organism 15 (11994)). Details: Listeria monocytogenes 11994; 22 hrs; read-out: MIC.
Assay type: cell-based
In short: as §10
For `CCCCCCCCCCCCOCCO` [L1, Ethylene Glycol Monododecyl Ether], the MIC was 440 µM (≈ 101 µg/mL).

Same assay, conditions: Listeria monocytogenes 11994; 48 hrs; read-out: MIC
In the case of `CCCCCCCCCCCCOCCO` [L1, Ethylene Glycol Monododecyl Ether], the MIC is reported as 880 µM (≈ 203 µg/mL).

These compounds were tested on Enterococcus faecium (VRE) MB 3137 (assay: MIC agar dilution, VRE strain 26). Details: 22 hrs.
Assay type: cell-based
Experimental: as §1, §2, §3, §4, §5, §6, §7, §8, §9
Compound `CCCCCCCCCCCCOCCO` [L1, Ethylene Glycol Monododecyl Ether] has an MIC of 440 µM (≈ 101 µg/mL).

Same assay, conditions: 48 hrs
Work on `CCCCCCCCCCCCOCCO` [L1, Ethylene Glycol Monododecyl Ether] yielded an MIC of 440 µM (≈ 101 µg/mL).

Each compound was assayed on Enterococcus casseliflavus (VRE) Clin waste (assay: MIC agar dilution, VRE strain 23). Details: 22 hrs.
Assay type: cell-based
Experimental: as §1, §2, §3, §4, §5, §6, §7, §8, §9
Compound `CCCCCCCCCCCCOCCO` [L1, Ethylene Glycol Monododecyl Ether] has an MIC of 220 µM (≈ 50.7 µg/mL).

Same assay, conditions: 48 hrs
For `CCCCCCCCCCCCOCCO` [L1, Ethylene Glycol Monododecyl Ether], the MIC was 220 µM (≈ 50.7 µg/mL).

The compounds below were run on MRSA EMRSA 15 19972/98 (assay: MIC agar dilution, MRSA strain 39). Details: Staphylococcus aureus, 22 hrs.
Assay type: cell-based
Experimental: as §1, §2, §3, §4, §5, §6, §7, §8, §9
`CCCCCCCCCCCCOCCO` [L1, Ethylene Glycol Monododecyl Ether] showed an MIC of 220 µM (≈ 50.7 µg/mL).

Same assay, conditions: Staphylococcus aureus, 48 hrs
`CCCCCCCCCCCCOCCO` [L1, Ethylene Glycol Monododecyl Ether] was tested, and the MIC was 220 µM (≈ 50.7 µg/mL).

What follows are compounds tested on Enterococcus faecalis (VRE) PHLS URINE 2000 (assay: MIC agar dilution, VRE strain 21). Details: 22 hrs.
Assay type: cell-based
Experimental: as §1, §2, §3, §4, §5, §6, §7, §8, §9
In the case of `CCCCCCCCCCCCOCCO` [L1, Ethylene Glycol Monododecyl Ether], the MIC is reported as 220 µM (≈ 50.7 µg/mL).

Same assay, conditions: 48 hrs
`CCCCCCCCCCCCOCCO` [L1, Ethylene Glycol Monododecyl Ether] showed an MIC of 220 µM (≈ 50.7 µg/mL).
